This passage reports IC50 and half-life results from US7915448B2, “Substituted sulfonylaminoarylmethyl cyclopropanecarboxamide as VR1 receptor antagonists” (Pfizer Inc., priority 2005, dated 2011).

The target in one data set is T1, human VR1 receptors (Homo sapiens, UniProt Q8NER1).
T1 construct: host or cells: cells highly expressing human VR1; cell type not specified
In words: Human VR1 antagonist assay (Ca2+ imaging). The format is cell-based. The note with it: cells expressing human VR1, fura-2 Ca2+ imaging, FDSS 6000; capsaicin (300 nM) or acid (pH5.8) stimulation, table does not say which. The text has this:
Human VR1 Antagonist Assay
VR1 antagonistic activity can be determined by the Ca^2+ imaging assay using human VR1 highly expressing cells. The cells that highly express human VR1 receptors are obtainable from several different conventional methods. The one standard method is cloning from human Dorsal Root Ganglion (DRG) or kidney according to the methods such as described in the journal article; Nature, 389, pp 816-824, 1997. Alternatively VR1 receptors highly expressing human keratinocytes are also known and published in the journal article (Biochemical and Biophysical Research Communications, 291, pp 124-129, 2002). […] Further more, the method to up regulate human VR1 gene, which is usually a silent gene or don't produce detectable level of VR1 receptors, is also available to obtain propriety cells. Such genetic modification method was described in detail; Nat. Biotechnol., 19, pp 440-445, 2001.
The cells that express human VR1 receptors were maintained in culture flask at 37° C. in an environment containing 5% CO2 until use in the assay. The intracellular Ca^2+ imaging assay to determine VR1 antagonistic activities were done by following procedures.
The culture medium was removed from the flask and fura-2/AM fluorescent calcium indicator was added to the flask at a concentration of 5 μM in the medium. The flask was placed in CO2 incubator and incubated for 1 hour. Then the cells expressing the human VR1 receptors were detached from the flask follow by washing with phosphate buffer saline, PBS(−) and re-suspended in assay buffer. The 80 μl of aliquot of cell suspension (3.75×10^5 cells/ml) was added to the assay plate and the cells were spun down by centrifuge (950 rpm, 20° C., 3 minutes).
Capsaicin Stimulation Assay:
The capsaicin-induced changes in the intracellular calcium concentration were monitored using FDSS 6000 (Hamamatsu Photonics, Japan), a fluorometric imaging system. The cell suspension in Krebs-Ringer HEPES (KRH) buffer (115 mM NaCl, 5.4 mM KCl, 1 mM MgSO4, 1.8 mM CaCl2, 11 mM D-Glucose, 25 mM HEPES, 0.96 mM Na2HPO4, pH 7.3) were pre-incubated with varying concentrations of the test compounds or KRH buffer (buffer control) for 15 minutes at room temperature under the dark condition. Then capsaicin solution, which gives 300 nM in assay mixture, was automatically added to the assay plate by the FDSS 6000.
The Acid-induced changes in the intracellular calcium concentration were monitored using FDSS 6000 (Hamamatsu Photonics, Japan), a fluorometric imaging system. The cell suspension in resting buffer (HBSS supplemented with 10 mM HEPES, pH 7.4) were pre-incubated with varying concentrations of the test compounds or resting buffer (buffer control) for 15 minutes at room temperature under the dark condition. The cells were automatically added the stimulating solution (HBSS supplemented with MES, final assay buffer pH5.8) by the FDSS 6000.
Determination of Antagonist Activity
The monitoring of the changes in the fluorescence signals (λex=340 nm/380 nm, λem=510-520 nm) was initiated at 1 minute prior to the addition of capsaicin solution or acidic buffer and continued for 5 minute.

A short description of data set [1]: Half-life in Human Liver Microsomes (HLM). The settings on record: human, human liver microsomes (HL101), pH 7.4. (In general: Microsomes from liver hold many membrane-bound enzymes, among them those of drug oxidation.)
Method: Test compounds (1 μM) were incubated with 3.3 mM MgCl2 and 0.78 mg/mL HLM (HL101) in 100 mM potassium phosphate buffer (pH 7.4) at 37° C. on the 96-deep well plate. The reaction mixture was split into two groups, a non-P450 and a P450 group. NADPH was only added to the reaction mixture of the P450 group. An aliquot of samples of P450 group was collected at 0, 10, 30, and 60 min time point, where 0 min time point indicated the time when NADPH was added into the reaction mixture of P450 group. An aliquot of samples of non-P450 group was collected at −10 and 65 min time point. Collected aliquots were extracted with acetonitrile solution containing an internal standard. The precipitated protein was spun down in centrifuge (2000 rpm, 15 min). The compound concentration in supernatant was measured by LC/MS/MS system.
The half-life value was obtained by plotting the natural logarithm of the peak area ratio of compounds/internal standard versus time. The slope of the line of best fit through the points yields the rate of metabolism (k).

Bounds are passed on as bounds.

T1 sequence (Q8NER1 whole entry): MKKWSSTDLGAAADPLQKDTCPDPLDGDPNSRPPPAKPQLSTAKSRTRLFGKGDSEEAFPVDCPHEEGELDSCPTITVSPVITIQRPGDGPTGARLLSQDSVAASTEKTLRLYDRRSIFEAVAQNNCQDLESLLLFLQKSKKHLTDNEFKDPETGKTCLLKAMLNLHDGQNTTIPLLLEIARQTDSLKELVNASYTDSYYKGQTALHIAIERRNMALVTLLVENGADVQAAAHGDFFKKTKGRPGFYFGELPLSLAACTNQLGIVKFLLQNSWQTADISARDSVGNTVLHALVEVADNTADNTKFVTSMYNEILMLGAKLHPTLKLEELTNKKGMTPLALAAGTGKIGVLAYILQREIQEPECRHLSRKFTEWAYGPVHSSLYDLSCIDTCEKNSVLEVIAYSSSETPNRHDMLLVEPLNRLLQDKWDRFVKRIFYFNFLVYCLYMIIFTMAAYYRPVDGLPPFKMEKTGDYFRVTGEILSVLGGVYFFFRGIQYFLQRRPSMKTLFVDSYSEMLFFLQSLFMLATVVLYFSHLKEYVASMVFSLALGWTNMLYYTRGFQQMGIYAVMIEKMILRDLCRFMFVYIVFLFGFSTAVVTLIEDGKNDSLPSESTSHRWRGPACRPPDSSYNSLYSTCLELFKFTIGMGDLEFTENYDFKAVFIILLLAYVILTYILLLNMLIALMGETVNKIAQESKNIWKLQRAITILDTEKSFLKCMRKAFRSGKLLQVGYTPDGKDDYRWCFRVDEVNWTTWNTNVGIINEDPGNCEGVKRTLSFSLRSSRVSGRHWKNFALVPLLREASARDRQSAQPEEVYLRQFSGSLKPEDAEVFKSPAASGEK

Usually IC50 stands for the concentration that inhibits the measured activity by half. A higher IC50 goes with a need for much substance. Usually half-life stands for the time in which the quantity being followed falls by half. `CCc1cc([C@@H](C)NC(=O)C2CC2(C)c2cc(F)c(C(C)(C)C(F)(F)F)c(F)c2)ccc1NS(C)(=O)=O` (single isomer, unassigned) [Example 72]: half-maximal inhibition at human VR1 receptors (IC50) required 8.5 nM. In data set [1], this compound registered a half-life at 1 μM of 52.6 min.

As to `CCc1cc([C@@H](C)NC(=O)C2CC2(C)c2ccc(OC(F)(F)F)cc2)ccc1NS(C)(=O)=O` (single isomer, unassigned) [Example 75], inhibition against human VR1 receptors was half-maximal at 11.8 nM (IC50). For the same compound, the half-life at 1 μM in data set [1] amounted to 10 min.

Regarding `C[C@@H](NC(=O)C1CC1(C)c1ccc(C(C)(C)C(F)(F)F)cc1)c1ccc(NS(C)(=O)=O)c(F)c1` (single isomer, unassigned) [Example 77], the IC50 against human VR1 receptors was determined as 50.5 nM. In data set [1], the half-life at 1 μM was 50 min.

`Cc1cc([C@H](C)NC(=O)[C@H]2C[C@]2(C)c2ccc(C(F)(F)F)cc2)ccc1NS(C)(=O)=O` (single isomer, unassigned) [Example 82]: half-maximal inhibition against human VR1 receptors (IC50) required 62 nM. This compound also had a half-life at 1 μM in data set [1] of 26 min.

Compound `CC(C)(C)c1ccc(C2CC2C(=O)NCc2ccc(NS(C)(=O)=O)c(F)c2)cc1` (centres unmarked) [Example 1, 2-(4-tert-Butylphenyl)-N-{3-fluoro-4-[(methylsulfonyl)amino]benzyl}cyclopropanecarboxamide] came in with a 50% inhibitory concentration (IC50) against human VR1 receptors of 330 nM. Moreover, the half-life at 1 μM in data set [1] was determined as 13 min.

`Cc1cc([C@@H](C)NC(=O)C2CC2c2ccc(C(C)(C)C)c(F)c2)ccc1NS(C)(=O)=O` (stereo partly drawn) [Example 2, 2-(4-tert-Butyl-3-fluorophenyl)-N-((1R)-1-{3-methyl-4-[(methylsulfonyl)amino]phenyl}ethyl)cyclopropanecarboxamide] showed a half-maximal inhibitory concentration (IC50) on human VR1 receptors of 11.2 nM. The half-life at 1 μM in data set [1] amounted to 32 min.

The compound `Cc1cc(CNC(=O)C2CC2c2ccc(C(C)(C)C)c(F)c2)ccc1NS(C)(=O)=O` (centres unmarked) [Example 4, 2-(4-tert-Butyl-3-fluorophenyl)-N-{3-methyl-4-[(methylsulfonyl)amino]benzyl}cyclopropanecarboxamide] returned an IC50 on human VR1 receptors of 190 nM. The half-life at 1 μM in data set [1] came out at 9 min.

On human VR1 receptors, `Cc1cc(CNC(=O)C2CC2(C)c2ccc(C(C)(C)C)cc2)ccc1NS(C)(=O)=O` (centres unmarked) [Example 5, 2-(4-tert-Butylphenyl)-2-methyl-N-{3-methyl-4-[(methylsulfonyl)amino]benzyl}cyclopropanecarboxamide] displayed an IC50 of 40 nM. Further, in data set [1], the half-life at 1 μM stood at 5 min.

`Cc1cc(CNC(=O)C2CC2c2ccc(C(C)(C)C(F)(F)F)cc2)ccc1NS(C)(=O)=O` (centres unmarked) [Example 6, N-{3-Methyl-4-[(methylsulfonyl)amino]benzyl}-2-[4-(2,2,2-trifluoro-1,1-dimethylethyl)phenyl]cyclopropanecarboxamide] came in with an IC50 against human VR1 receptors of 18.3 nM. For the same compound, the half-life at 1 μM in data set [1] is 18 min.

In the case of `C[C@@H](NC(=O)C1CC1c1ccc(C(C)(C)C)cc1)c1ccc(NS(C)(=O)=O)c(F)c1` (stereo partly drawn) [Example 8, 2-(4-tert-Butylphenyl)-N-((1R)-1-{3-fluoro-4-[(methylsulfonyl)amino]phenyl}ethyl)cyclopropanecarboxamide], the half-inhibitory concentration (IC50) against human VR1 receptors is 38 nM. For the same compound, the half-life at 1 μM in data set [1] was determined as 37 min.

Take `Cc1nc([C@@H](C)NC(=O)C2CC2(C)c2ccc(C(C)(C)C(F)(F)F)cc2)ccc1NS(C)(=O)=O` (stereo partly drawn) [Example 9, 2-Methyl-N-((1R)-1-{6-methyl-5-[(methylsulfonyl)amino]pyridin-2-yl}ethyl)-2-[4-(2,2,2-trifluoro-1,1-dimethylethyl)phenyl]cyclopropanecarboxamide]: the IC50 against human VR1 receptors was 171 nM. Also, in data set [1], the half-life at 1 μM is 42 min.

For `Cc1cc([C@@H](C)NC(=O)C2CC2(C)c2ccc(C(C)(C)C)nc2)ccc1NS(C)(=O)=O` (stereo partly drawn) [Example 10, 2-(6-tert-Butylpyridin-3-yl)-2-methyl-N-((1R)-1-{3-methyl-4-[(methylsulfonyl)amino]phenyl}ethyl)cyclopropanecarboxamide], 3.59 nM corresponded to half-maximal inhibition on human VR1 receptors (IC50). In data set [1], this compound showed a half-life at 1 μM of 22 min.

`Cc1cc([C@@H](C)NC(=O)C2CC2(C)c2ccc(C(F)(F)F)nc2)ccc1NS(C)(=O)=O` (stereo partly drawn) [Example 12, 2-Methyl-N-((1R)-1-{3-methyl-4-[(methylsulfonyl)amino]phenyl}ethyl)-2-[6-(trifluoromethyl)pyridin-3-yl]cyclopropanecarboxamide] had an IC50 against human VR1 receptors of 27 nM. In addition, the half-life at 1 μM in data set [1] was 83 min.

Take `Cc1nc([C@@H](C)NC(=O)[C@H]2C[C@]2(C)c2ccc(C(F)(F)F)cc2)ccc1NS(C)(=O)=O` [Example 14, (1S,2S)-2-Methyl-N-((1R)-1-{6-methyl-5-[(methylsulfonyl)amino]pyridin-2-yl}ethyl)-2-[4-(trifluoromethyl)phenyl]cyclopropanecarboxamide]: the IC50 against human VR1 receptors amounted to 203 nM. For the same compound, the half-life at 1 μM in data set [1] was greater than 120 min.

With `Cc1cc([C@@H](C)NC(=O)[C@H]2C[C@]2(C)c2ccc(C(F)(F)F)cc2)ccc1NS(C)(=O)=O` [Example 15, (1S,2S)-2-Methyl-N-((1R)-1-{3-methyl-4-[(methylsulfonyl)amino]phenyl}ethyl)-2-[4-(trifluoromethyl)phenyl]cyclopropanecarboxamide], at human VR1 receptors, half-maximal inhibition (IC50) required 0.71 nM. For the same compound, the half-life at 1 μM in data set [1] amounted to 38 min.

On human VR1 receptors, `Cc1cc([C@@H](C)NC(=O)C2CC2(C)c2ccc(OC(F)(F)F)cc2)ccc1NS(C)(=O)=O` (stereo partly drawn) [Example 16, 2-Methyl-N-((1R)-1-{3-methyl-4-[(methylsulfonyl)amino]phenyl}ethyl)-2-[4-(trifluoromethoxy)phenyl]cyclopropanecarboxamide] came in with a half-inhibitory concentration (IC50) of 6.59 nM. In data set [1], the half-life at 1 μM came out at 53 min.

As to `C[C@@H](NC(=O)C1CC1c1ccc(C(C)(C)C(F)(F)F)cc1)c1ccc(NS(C)(=O)=O)c(F)c1` (stereo partly drawn) [Example 18, N-((1R)-1-{3-Fluoro-4-[(methylsulfonyl)amino]phenyl}ethyl)-2-[4-(2,2,2-trifluoro-1,1-dimethylethyl)phenyl]cyclopropanecarboxamide], half-maximal inhibition against human VR1 receptors (IC50) required 282 nM. The compound further gave a half-life at 1 μM in data set [1] of 119 min.

`Cc1cc([C@@H](C)NC(=O)C2CC2c2ccc(C(F)(F)F)cc2)ccc1NS(C)(=O)=O` (stereo partly drawn) [Example 19a, N-((1R)-1-{3-Methyl-4-[(methylsulfonyl)amino]phenyl}ethyl)-2-[4-(trifluoromethyl)phenyl]cyclopropanecarboxamide]: on human VR1 receptors, the IC50 is 23 nM. For the same compound, the half-life at 1 μM in data set [1] was greater than 120 min.

For the compound `C[C@@H](NC(=O)C1CC1c1ccc(C(F)(F)F)cc1)c1ccc(NS(C)(=O)=O)c(CO)c1` (stereo partly drawn) [Example 20, N-((1R)-1-{3-(Hydroxymethyl)-4-[(methylsulfonyl)amino]phenyl}ethyl)-2-[4-(trifluoromethyl)phenyl]cyclopropanecarboxamide], half-maximal inhibition against human VR1 receptors (IC50) was put at 47 nM. Moreover, the half-life at 1 μM in data set [1] was greater than 120 min.

Take `C[C@@H](NC(=O)[C@H]1C[C@]1(C)c1ccc(C(F)(F)F)cc1)c1ccc(NS(C)(=O)=O)cc1` [Example 21, (1S,2S)-2-Methyl-N-((1R)-1-{4-[(methylsulfonyl)amino]phenyl}ethyl)-2-[4-(trifluoromethyl)phenyl]cyclopropanecarboxamide]: inhibition against human VR1 receptors was half-maximal at 20.1 nM (IC50). Further, the half-life at 1 μM in data set [1] was greater than 120 min.

At human VR1 receptors, `C[C@@H](NC(=O)[C@H]1C[C@]1(C)c1ccc(C(F)(F)F)cc1)c1ccc(NS(C)(=O)=O)c(CO)c1` [Example 22, (1S,2S)-N-((1R)-1-{3-(Hydroxymethyl)-4-[(methylsulfonyl)amino]phenyl}ethyl)-2-methyl-2-[4 (trifluoromethyl)phenyl]cyclopropanecarboxamide] gave an IC50 of 1.2 nM. Besides, the half-life at 1 μM in data set [1] was 37 min.

The compound `C[C@@H](NC(=O)[C@H]1C[C@]1(C)c1ccc(C(F)(F)F)cc1)c1ccc(NS(C)(=O)=O)c(F)c1` [Example 23, (1S,2S)-N-((1R)-1-{3-Fluoro-4-[(methylsulfonyl)amino]phenyl}ethyl)-2-methyl-2-[4-(trifluoromethyl)phenyl]cyclopropanecarboxamide] gave an IC50 against human VR1 receptors of 10.9 nM. The same compound displayed a half-life at 1 μM in data set [1] greater than 120 min.
